± gives the uncertainty stated by the source.
Test: xn = mol fraction of the nth substance listed

CCCCCCCCn1cc[n+](C)c1.F[B-](F)(F)F + COC(C)=O
298.15 K, 101 kPa
Details | viscosity [mPa·s]
x2 = 0.199 | 100 ± 20
x2 = 0.5512 | 13.82 ± 0.18
x2 = 0.801 | 2.29 ± 0.04
x2 = 0.9515 | 0.63 ± 0.01

CCCC[n+]1ccn(C)c1.COP(=O)([O-])OC + CCCCC(=O)[O-].CC[NH+](CC)CCO
101 kPa, x2 = 0
Details | viscosity [mPa·s]
303.15 K | 426 ± 13
323.15 K | 129.4 ± 2.2
328.15 K | 100.9 ± 1.5
348.15 K | 43.18 ± 0.55
358.15 K | 30.38 ± 0.38
368.15 K | 22.22 ± 0.28
373.15 K | 19.25 ± 0.24

CCCC[n+]1ccn(C)c1.[Cl-] + CCCC[n+]1ccn(C)c1.F[B-](F)(F)F
Details | viscosity [mPa·s]
293 K, 101 kPa, x1 = 0.1015 | 201 ± 12

CCCCCCCCn1cc[n+](C)c1.O=[N+]([O-])[O-] + CCO
101 kPa
Details | viscosity [mPa·s]
283.15 K, x2 = 0.554 | 48.2 ± 2
288.15 K, x2 = 0.357 | 162 ± 26
288.15 K, x2 = 0.868 | 4.46 ± 0.53
293.15 K, x2 = 0.455 | 59.7 ± 1.9
293.15 K, x2 = 0.767 | 8.59 ± 0.59
298.15 K, x2 = 0.767 | 7.54 ± 0.57
303.15 K, x2 = 0.554 | 21.79 ± 0.93
303.15 K, x2 = 0.767 | 6.47 ± 0.55
313.15 K, x2 = 0.767 | 4.99 ± 0.53
318.15 K, x2 = 0.128 | 112 ± 12
318.15 K, x2 = 0.357 | 39.8 ± 1.5
318.15 K, x2 = 0.455 | 21.77 ± 0.91
328.15 K, x2 = 0.128 | 53.6 ± 1.6
328.15 K, x2 = 0.357 | 23.9 ± 1
328.15 K, x2 = 0.554 | 9.29 ± 0.6

CCCCCCCCn1cc[n+](C)c1.F[B-](F)(F)F + NC(N)=O + O
298.15 K, 100 kPa
Details | viscosity [mPa·s]
x2 = 0, x3 = 0.9487 | 5.25 ± 0.27
x2 = 0.008492, x3 = 0.9402 | 5.16 ± 0.26
x2 = 0.01695, x3 = 0.9318 | 5.13 ± 0.26
x2 = 0.03322, x3 = 0.9155 | 5.12 ± 0.26
x2 = 0.0408, x3 = 0.9079 | 5.13 ± 0.26

C=CCn1cc[n+](C)c1.[I-] + II
Details | electrical conductivity [S/m]
298 K, 101.3 kPa, x1 = 0.25 | 4.21 ± 0.42

CCCCCCCCn1cc[n+](C)c1.O=[N+]([O-])[O-] + CCCCO
101 kPa
Details | viscosity [mPa·s]
283.15 K, x2 = 0.168 | 770 ± 280
293.15 K, x2 = 0.358 | 137 ± 19
293.15 K, x2 = 0.57 | 38.5 ± 1.5
293.15 K, x2 = 0.676 | 20.63 ± 0.9
293.15 K, x2 = 0.848 | 7.8 ± 0.58
298.15 K, x2 = 0.458 | 59.3 ± 1.9
298.15 K, x2 = 0.57 | 31.8 ± 1.3
298.15 K, x2 = 0.848 | 6.79 ± 0.56
303.15 K, x2 = 0.458 | 47.9 ± 1.8
303.15 K, x2 = 0.676 | 14.91 ± 0.74
308.15 K, x2 = 0.358 | 64.5 ± 2.6
308.15 K, x2 = 0.676 | 12.81 ± 0.68
313.15 K, x2 = 0.168 | 123 ± 15
313.15 K, x2 = 0.358 | 52.2 ± 1.2
318.15 K, x2 = 0.358 | 42.8 ± 1.6
323.15 K, x2 = 0.458 | 23.19 ± 0.96
323.15 K, x2 = 0.57 | 14.15 ± 0.71
323.15 K, x2 = 0.676 | 8.67 ± 0.59
323.15 K, x2 = 0.848 | 3.61 ± 0.52
328.15 K, x2 = 0.458 | 17.18 ± 0.8

— the CheMixHub ionic liquid set
